One test deals with adaptive NKG2C+ NK cells. Briefly: Stimulation of purified NK cells with peptide-pulsed RMA-S/HLA-E (effector functions). The test is classed as cell-based, human. To be noted: RMA-S/HLA-E pulsed with 300 μM peptide; 6 h; NK cells from healthy HCMV+ individuals. The protocol:
HLA-E surface stabilization was induced as described previously^30. In brief, 300 μM synthetic peptides (Peptides&Elephants) were added to target cells cultured at a density of 2×10^6 cells/ml in serum-free Opti-MEM (ThermoFisher) and incubated for 16 h at 37° C. Peptide-pulsed cells were either stained for FACS analysis of HLA-E surface expression or washed with complete media and used in co-cultures. For pulse-chase experiments, cells were pulsed as above, washed twice, and resuspended in Opti-MEM without peptide. HLA-E surface expression was monitored by FACS analysis at indicated time points.
CD56^+ MACS-enriched cells were stained with viability dye, CD3, and CD56, FACS-sorted for viable CD3^−CD56^+ NK cells, and rested overnight in complete medium. Purified NK cells were stimulated by co-culture with peptide-pulsed (300 μM) irradiated (30 Gy) target cells at a 2:1 NK:target ratio for 6 h in the presence of 300 μM synthetic peptides.
For blocking experiments, rested FACS-sorted viable CD3^− CD56^dim NKG2A^− NKG2C+ NK cells were treated with 20 μg/ml IgG1 isotype control or anti-CD94 antibody (both RnD Systems) for 15 min prior to start of the co-culture.

For another test, the system named is NKG2C+ NK cells. Briefly: In vitro culture of CD56dim NK cells from HCMV− donors with peptide-pulsed targets and IL-15 (proliferation, accumulation). It counts as cell-based, human. To be noted: RMA-S/HLA-E/LFA-3, IL-15, IL-12/18 during initial 20 h, 14 days. The protocol:
CD56^+ MACS-enriched cells from HCMV^− donors were stained with viability dye, CD3, and CD56, FACS-sorted for viable CD3^− CD56^dim NK cells, and rested overnight in complete medium. Purified CD56^dim NK cells were labeled with 2 μM CellTrace violet (Thermo Fisher) according to the manufacturer's instructions. 5×10^5 labeled NK cells were cultured with 1×10^5 peptide-pulsed […] irradiated (30 Gy) target cells in complete medium containing 10 ng/ml IL-15 (Miltenyi Biotec) in U-bottom 96-well plates (Greiner Bio-One) for the indicated times. Complete medium containing IL-15 was replaced every third to fourth day. On days 4, 7, and 11 of culture, 1×10^5 fresh peptide-pulsed irradiated target cells were added to the cultures.
Where indicated, 10 ng/ml IL-12 (Miltenyi Biotec) and 100 ng/ml IL-18 (MBL) were added at the start of co-cultures. After 20 h of culture, the cells were washed 3 times and resuspended in complete medium containing 10 ng/ml IL-15. Control wells without IL-12/18 were treated equally. To determine NKG2C+ NK cell numbers per μl of culture medium, CountBright Absolute Counting Beads (ThermoFisher) were used according to the manufacturer's instructions.
Proliferation and replication indices^60 of NKG2C+ cells were calculated using the proliferation analysis platform included in FlowJo v9.9 (FlowJo LLC) and normalized to those of NKG2C^− cells in the same condition.

This note sets out measurements from US10864245B2, “Activation and expansion of NKG2C+ NK cells” (Deutsches Rheuma-Forschungszentrum Berlin, priority 2018, dated 2020).

For the sequence VMAPRTLVL, the “TNF, IFN-γ, CD107a, and CCL3 expression by adaptive NKG2C+ NK cells” value in the test with adaptive NKG2C+ NK cells is recorded as “differentially triggered”. For the same sequence, the “NKG2C+ NK-cell absolute counts and frequencies” value in the test on NKG2C+ NK cells is given as “increase of NKG2C+ NK-cell absolute counts as well as frequencies”.
